Laboratory results taken from patent US11040031B2, “Pyrazole derivatives as MALT1 inhibitors” (Janssen Pharmaceutica NV, priority 2018, dated 2021).
Where two headings read alike, the source gives them in different places.

Experiments:
[1] = test system: Secretion of IL6 by TMD8 ABC-DLBCL cells; experiment: Human IL6 Mesoscale assay (TMD-8); format: cell-based; conditions: read-out: Human IL6 Mesoscale assay (TMD-8)
Experimental: (§1) NFKB signaling regulates the secretion of multiple cytokines, including IL6 and IL10. Secretion of the cytokines IL6 and IL10 by TMD8 or OCI-LY3 ABC-DLBCL cells was measured using a mesoscale assay.
(§2) Cell passage number should not exceed 30. Cells should be kept between 0.5-2.5 million cells per mL during culturing and cells should be supplemented every 2-3 days with fresh 50 µM beta-mercaptoenthanol. No beta-mercaptoethanol was used during the mesoscale assay.
(§3) DMSO control wells were used to determine the maximum signal (High Control (HC)). […] Compounds and cells were incubated for 24 h at 37° C. and 5% CO2 (assay volume is 150 μL). After 24 h of incubation 50 μL of the supernatant was transferred to a MSD plate (V-Plex Proinflammation Panel 1 (human) kit, Mesoscale (MSD)) and incubated for 2 h with vigorous shaking (600 rpm) at room temperature. Following incubation, plates were washed 3× with PBS+0.05% Tween-20 and 25 μL detection antibody solution (IL6 & IL10 antibodies in diluent 3 (MSD)) was added per well followed by 2 h of incubation with vigorous shaking (600 rpm) at room temperature. After 3× washes with PBS+0.05% Tween-20, plates were incubated with 150 μL 2× Read Buffer T and read on SECTOR imager.

[2] = test system: OCI-Ly3 ABC-DLBCL cell line; experiment: 4-day proliferation assay OCI-Ly3; format: cell-based; conditions: Homo sapiens, read-out: Anti-proliferation: OCI-LY-3 IC50
Experimental: To assess anti-proliferative effects, MALT1 inhibitor test compounds were tested in 4-day proliferation assays using three different DLBCL cell lines.
Cells should be kept between 0.5-2.5 million cells per mL during culturing and cells should be supplemented every 2-3 days with fresh 50 μM beta-mercaptoenthanol. No beta-mercaptoethanol is used during the proliferation assay. OCI-Ly7 cells were propagated in IMDM (ThermoFisher) supplemented with 10% fetal bovine serum (HyClone), 2 mM L-glutamine (Sigma Aldrich) and 50 μg/mL Gentamycin. Cell passage numbers should not exceed 30.
10,000 TMD8, 10,000 OCI-Ly3 or 2,000 OCI-Ly7 cells were seeded in 100 μL media per well and incubated for 4 days at 37° C. and 5% CO2. Cell plating numbers were chosen based on growth curves to ensure linear cell growth. After 4 days of incubation 50 μl CellTiterGLO reagent (Promega) were added to each well and luminescence was measured on the Envision after 10 min of incubation at room temperature.

[3] = biological target: T1, full-length MALT1 protein (Strep-MALT1(1-824)-His) (Homo sapiens, UniProt Q9UDY8); experiment: biochemical;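 also: fluorogenic LRSR-AMC substrate cleavage by MALT1, 50 min compound preincubation then 4 h reaction at RT, 11-point dilution from 30 µM, scaled between enzyme-free and untreated enzyme controls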
T1 sequence (Q9UDY8 1-824): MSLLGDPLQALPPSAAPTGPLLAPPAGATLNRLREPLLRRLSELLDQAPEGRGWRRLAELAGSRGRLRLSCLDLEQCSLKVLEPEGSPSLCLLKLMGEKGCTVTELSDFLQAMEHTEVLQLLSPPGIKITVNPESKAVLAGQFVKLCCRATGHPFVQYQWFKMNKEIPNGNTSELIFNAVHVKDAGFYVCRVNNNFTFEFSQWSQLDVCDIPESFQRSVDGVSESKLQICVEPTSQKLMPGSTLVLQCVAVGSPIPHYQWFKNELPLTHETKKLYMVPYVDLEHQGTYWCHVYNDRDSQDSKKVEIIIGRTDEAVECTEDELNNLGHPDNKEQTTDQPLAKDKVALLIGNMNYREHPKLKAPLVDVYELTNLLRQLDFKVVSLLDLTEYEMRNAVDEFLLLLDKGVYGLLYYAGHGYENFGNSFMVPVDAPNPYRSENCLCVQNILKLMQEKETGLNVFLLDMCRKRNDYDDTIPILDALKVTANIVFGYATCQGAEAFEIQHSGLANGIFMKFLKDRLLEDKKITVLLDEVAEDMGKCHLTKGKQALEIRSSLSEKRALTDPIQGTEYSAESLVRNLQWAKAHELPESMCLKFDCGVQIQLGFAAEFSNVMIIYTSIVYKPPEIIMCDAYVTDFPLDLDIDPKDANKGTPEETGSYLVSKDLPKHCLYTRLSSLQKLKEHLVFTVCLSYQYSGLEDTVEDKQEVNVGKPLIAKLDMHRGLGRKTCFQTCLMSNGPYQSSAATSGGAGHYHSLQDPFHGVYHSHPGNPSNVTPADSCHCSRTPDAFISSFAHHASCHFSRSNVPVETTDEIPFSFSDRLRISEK

[4] = test system: Secretion of IL10 by TMD8 ABC-DLBCL cells; experiment: Human IL10 Mesoscale assay (TMD-8); format: cell-based; conditions: read-out: Human IL10 Mesoscale assay (TMD-8)
Experimental: as §1, §2, §3

[5] = test system: Secretion of IL10 by OCI-LY3 ABC-DLBCL cells; experiment: Human IL10 Mesoscale assay (OCI-LY3); format: cell-based; conditions: OCI-LY3 cells, 24 h incubation, supernatant, MSD V-Plex, read-out: Human IL10 Mesoscale assay (OCI-LY3)
How it was run: (§4)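 TMD8 or OCI-LY3 ABC-DLBCL cells incubated with compound 24 h at 37° C without beta-mercaptoethanol. Secreted IL6 and IL10 in supernatant quantified by MSD electrochemiluminescence immunoassay; DMSO wells define maximum signal.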

[6] = test system: Secretion of IL6 by OCI-LY3 ABC-DLBCL cells; experiment: Human IL6 Mesoscale assay (OCI-LY3); format: cell-based; conditions: OCI-LY3 cells, 24 h incubation, supernatant, MSD V-Plex, read-out: Human IL6 Mesoscale assay (OCI-LY3)
How it was run: as §4

[7] = TMD8 cells, 24 h incubation, supernatant, MSD V-Plex
[8] = 96 h, 10,000 OCI-Ly3 cells per well, 4 days, CellTiterGLO

IC50 [1, 7] [nM]	IC50 [2, 8] [nM]	IC50 [3] [nM]	IC50 [4, 7] [nM]	IC50 ([1]; TMD8, 24 h) [nM]	IC50 ([2]; OCI-Ly3, 96 h) [nM]	IC50 ([4]; TMD8, 24 h) [nM]	IC50 [5] [nM]	IC50 [6] [nM]	Structure (SMILES)
148	741	132	65	–	–	–	–	–	Cc1cc(Cl)ccc1-n1ncc(C(=O)Nc2cnc(-n3nccn3)c(Cl)c2)c1C(F)(F)F [Cpd 2, 1-(4-Chloro-2-methylphenyl)-N-(5-chloro-6-(2H-1,2,3-triazol-2-yl)pyridin-3-yl)-5-(trifluoromethyl)-1H-pyrazole-4-carboxamide]
263	380	295	741	–	–	–	–	–	O=C(Nc1cnc(-n2nccn2)c(Cl)c1)c1cnn(-c2ccccc2)c1C(F)(F)F [Cpd 5, N-(5-Chloro-6-(2H-1,2,3-triazol-2-yl)pyridin-3-yl)-1-phenyl-5-(trifluoromethyl)-1H-pyrazole-4-carboxamide]
–	–	912	–	407	1550	417	–	–	O=C(Nc1cnc(-n2nccn2)c(Cl)c1)c1cnn(-c2ccc(F)cn2)c1C(F)(F)F [Cpd 7, N-(5-Chloro-6-(2H-1,2,3-triazol-2-yl)pyridin-3-yl)-1-(5-fluoropyridin-2-yl)-5-(trifluoromethyl)-1H-pyrazole-4-carboxamide]
316	2140	148	282	–	–	–	–	–	COc1ncccc1-n1ncc(C(=O)Nc2cnc(-n3nccn3)c(Cl)c2)c1C(F)(F)F [Cpd 14, N-(5-Chloro-6-(2H-1,2,3-triazol-2-yl)pyridin-3-yl)-1-(2-methoxypyridin-3-yl)-5-(trifluoromethyl)-1H-pyrazole-4-carboxamide]
912	741	1120	1260	–	–	–	–	–	N#Cc1cccc(-n2ncc(C(=O)Nc3cnc(-n4nccn4)c(Cl)c3)c2C(F)(F)F)c1 [Cpd 21, N-(5-chloro-6-(2H-1,2,3-triazol-2-yl)pyridin-3-yl)-1-(3-cyanophenyl)-5-(trifluoromethyl)-1H-pyrazole-4-carboxamide]
–	–	933	–	891	479	1070	–	–	Cc1ccc(-n2ncc(C(=O)Nc3cnc(-n4nccn4)c(Cl)c3)c2C(F)(F)F)nc1 [Cpd 23, N-(5-chloro-6-(2H-1,2,3-triazol-2-yl)pyridin-3-yl)-1-(5-methylpyridin-2-yl)-5-(trifluoromethyl)-1H-pyrazole-4-carboxamide]
1200	3890	851	1380	–	–	–	–	–	Cc1ccc(-n2ncc(C(=O)Nc3cnc(-n4nccn4)c(Cl)c3)c2C(F)(F)F)cc1 [Cpd 27, N-(5-chloro-6-(2H-1,2,3-triazol-2-yl)pyridin-3-yl)-1-(p-tolyl)-5-(trifluoromethyl)-1H-pyrazole-4-carboxamide]
135	1230	151	132	–	–	–	–	–	Cc1ccccc1-n1ncc(C(=O)Nc2cnc(-n3nccn3)c(Cl)c2)c1C(F)(F)F [Cpd 29, N-(5-chloro-6-(2H-1,2,3-triazol-2-yl)pyridin-3-yl)-1-(o-tolyl)-5-(trifluoromethyl)-1H-pyrazole-4-carboxamide]
1120	575	589	646	–	–	–	–	–	COc1nccc(-n2ncc(C(=O)Nc3cnc(-n4nccn4)c(C#N)c3)c2C(F)(F)F)c1Cl [Cpd 32, 1-(3-Chloro-2-methoxypyridin-4-yl)-N-(5-cyano-6-(2H-1,2,3-triazol-2-yl)pyridin-3-yl)-5-(trifluoromethyl)-1H-pyrazole-4-carboxamide]
–	–	145	–	407	457	631	–	–	N#Cc1cc(NC(=O)c2cnn(-c3ncc(F)cc3Br)c2C(F)(F)F)cnc1-n1nccn1 [Cpd 34, 1-(3-Bromo-5-fluoropyridin-2-yl)-N-(5-cyano-6-(2H-1,2,3-triazol-2-yl)pyridin-3-yl)-5-(trifluoromethyl)-1H-pyrazole-4-carboxamide]
–	–	214	–	1550	4270	1150	–	–	N#Cc1cc(NC(=O)c2cnn(-c3nccc(Cl)c3Cl)c2C(F)(F)F)cnc1-n1nccn1 [Cpd 36, N-(5-Cyano-6-(2H-1,2,3-triazol-2-yl)pyridin-3-yl)-1-(3,4-dichloropyridin-2-yl)-5-(trifluoromethyl)-1H-pyrazole-4-carboxamide]
4790	6310	170	2240	–	–	–	–	–	Cc1nccc(-n2ncc(C(=O)Nc3cnc(-n4nccn4)c(C#N)c3)c2C(F)(F)F)c1Cl [Cpd 43, 1-(3-chloro-2-methylpyridin-4-yl)-N-(5-cyano-6-(2H-1,2,3-triazol-2-yl)pyridin-3-yl)-5-(trifluoromethyl)-1H-pyrazole-4-carboxamide]
490	11000	389	1230	–	–	–	–	–	N#Cc1cc(NC(=O)c2cnn(-c3ncccc3Cl)c2C(F)(F)F)cnc1-n1nccn1 [Cpd 44, 1-(3-Chloropyridin-2-yl)-N-(5-cyano-6-(2H-1,2,3-triazol-2-yl)pyridin-3-yl)-5-(trifluoromethyl)-1H-pyrazole-4-carboxamide]
1100	–	126	1350	–	–	–	794	741	N#Cc1cc(NC(=O)c2cnn(-c3nccc(N)c3Cl)c2C(F)(F)F)cnc1-n1nccn1 [Cpd 120, 1-(4-amino-3-chloropyridin-2-yl)-N-(5-cyano-6-(2H-1,2,3-triazol-2-yl)pyridin-3-yl)-5-(trifluoromethyl)-1H-pyrazole-4-carboxamide]
437	–	234	245	–	–	–	–	–	N#Cc1cc(NC(=O)c2cnn(-c3cccc4c3CCN4)c2C(F)(F)F)cnc1-n1nccn1 [Cpd 130, N-(5-cyano-6-(2H-1,2,3-triazol-2-yl)pyridin-3-yl)-1-(indolin-4-yl)-5-(trifluoromethyl)-1H-pyrazole-4-carboxamide]

Structure (SMILES)	IC50 [1, 7] [nM]	IC50 [2, 8] [nM]	IC50 [3] [nM]	IC50 [4, 7] [nM]	IC50 ([1]; TMD8, 24 h) [nM]	IC50 ([2]; OCI-Ly3, 96 h) [nM]	IC50 ([4]; TMD8, 24 h) [nM]	IC50 [5] [nM]	IC50 [6] [nM]
Cc1ccnc(-n2ncc(C(=O)Nc3cnc(-n4nccn4)c(Cl)c3)c2C(F)(F)F)c1 [Cpd 22, N-(5-chloro-6-(2H-1,2,3-triazol-2-yl)pyridin-3-yl)-1-(4-methylpyridin-2-yl)-5-(trifluoromethyl)-1H-pyrazole-4-carboxamide]	–	–	724	–	437	490	724	–	–
